These are literature values, as cited in patent US8431151B2, “Antimicrobial nanostructured hydrogel web containing silver” (Syracuse University, priority 2009, dated 2013).

Data set [1] has as its system 16 bacterial species including Escherichia coli, Pseudomonas aeruginosa, and Staphylococcus aureus. Conditions: 16 bacterial species tested.
A further data set relates to mouse bone marrow cells. Conditions: 4 μg/mL silver (Ag^+).

For the compound `[Ag+]` [silver (Ag^+)], the “silver concentration at which bacterial species are inhibited” value in data set [1] was 1.25 µg/mL. In the data set with mouse bone marrow cells, the “detrimental effects to mouse bone marrow cells” value is listed as “does not exhibit any obvious detrimental effects”.
